Type in all cases: in vivo
Assay [1] has as its system Alopecurus myosuroides (ALOMY). The assay can be described thus: Test Example B, pre-emergence herbicidal test. Particulars: 312 h, evaluated after 13 days, 100=total damage to plant, 0=no damage to plant. A digest of the protocol: (§1)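 Seeds sown in standard soil and sprayed 1 day after sowing with compound formulated in acetone/water (50:50) with 0.5% Tween 20. Plants grown in a glasshouse at 24/16 °C day/night, 14 h light, 65% humidity. Damage scored after 13 days on a 0–100 scale (100 = total damage).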

Assay [2] relates to Avena fatua (AVEFA). The assay can be described thus: Test Example B, pre-emergence herbicidal test. The conditions noted are these: 312 h, evaluated after 13 days, 100=total damage to plant, 0=no damage to plant. A digest of the protocol: as §1
The subject of assay [3] is Echinochloa crus-galli (ECHCG). The assay can be described thus: Test Example B, pre-emergence herbicidal test. The conditions noted are these: 312 h, evaluated after 13 days, 100=total damage to plant, 0=no damage to plant. In outline:
as §1

In assay [4] the test system is Setaria faberi (SETFA). The assay can be described thus: Test Example B, pre-emergence herbicidal test. The conditions noted are these: 250 g/ha, evaluated after 13 days, 100=total damage to plant, 0=no damage to plant. A digest of the protocol: as §1
In assay [5] the test system is Alopecurus myosuroides (ALOMY). The assay can be described thus: Test Example B, post-emergence herbicidal test. Particulars: 312 h, evaluated after 13 days, 100=total damage to plant, 0=no damage to plant. A digest of the protocol: (§2)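 Pot-grown plants were sprayed 8 days after sowing with active ingredient in acetone/water (50:50) containing 0.5% Tween 20. Plants were kept in a glasshouse at 24/16 °C day/night, 14 h light and 65% humidity. Damage was scored 13 days later on a 0–100 scale, where 100 means total damage.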

Assay [6] relates to Avena fatua (AVEFA). Briefly: Test Example B, post-emergence herbicidal test. Particulars: 312 h, evaluated after 13 days, 100=total damage to plant, 0=no damage to plant. In outline:
as §2

The subject of assay [7] is Echinochloa crus-galli (ECHCG). Briefly: Test Example B, post-emergence herbicidal test. The conditions noted are these: 312 h, evaluated after 13 days, 100=total damage to plant, 0=no damage to plant. In outline:
as §2

For assay [8], the system named is Setaria faberi (SETFA). The assay can be described thus: Test Example B, post-emergence herbicidal test. The conditions noted are these: 250 g/ha, evaluated after 13 days, 100=total damage to plant, 0=no damage to plant. A digest of the protocol: as §2
The test system of assay [9] is Alopecurus myosuroides (ALOMY). The assay can be described thus: Test Example 1, pre-emergence herbicidal test. The conditions noted are these: 480 h, evaluated 20 days later, 100=total damage to plant, 0=no damage to plant. As to the method:
(§3) Monocotyledonous and dicotyledonous test plants were sown in standard soil in pots. After cultivation for one day (pre-emergence) or after 10 days cultivation (post-emergence) under controlled conditions in a glasshouse, the plants were sprayed with an aqueous spray solution derived from the formulation of the technical active ingredient in 0.6 ml acetone and 45 ml formulation solution containing 10.6% Emulsogen EL (Registry number 61791-12-6), 42.2% N-methylpyrrolidone, 42.2% dipropylene glycol monomethyl ether (Registry number 34590-94-8) and 0.2% X-77 (Registry number 11097-66-8). The test plants were then grown in a greenhouse under optimum conditions until, 15 days later for post-emergence and 20 days for pre-emergence, the test was evaluated (100=total damage to plant; 0=no damage to plant). Test Plants: Lolium perenne (LOLPE), Setaria faberi (SETFA), Digitaria sanguinalis (DIGSA), Alopecurus myosuroides (ALOMY), Echinochloa crus-galli (ECHCG) and Avena fatua (AVEFA), Pre-Emergence Data: […]

Assay [10] concerns Avena fatua (AVEFA). Briefly: Test Example 1, pre-emergence herbicidal test. Particulars: 480 h, evaluated 20 days later, 100=total damage to plant, 0=no damage to plant. As to the method:
as §3

Assay [11] relates to Digitaria sanguinalis (DIGSA). The assay can be described thus: Test Example 1, pre-emergence herbicidal test. The conditions noted are these: 480 h, evaluated 20 days later, 100=total damage to plant, 0=no damage to plant. How it is done:
as §3

Assay [12] has as its system Echinochloa crus-galli (ECHCG). Briefly: Test Example 1, pre-emergence herbicidal test. Particulars: 480 h, evaluated 20 days later, 100=total damage to plant, 0=no damage to plant. As to the method: as §3
Assay [13] concerns Lolium perenne (LOLPE). The assay can be described thus: Test Example 1, pre-emergence herbicidal test. The conditions noted are these: 480 h, evaluated 20 days later, 100=total damage to plant, 0=no damage to plant. How it is done: as §3
The subject of assay [14] is Setaria faberi (SETFA). The assay can be described thus: Test Example 1, pre-emergence herbicidal test. The conditions noted are these: 480 h, evaluated 20 days later, 100=total damage to plant, 0=no damage to plant, read-out: SEFTA damage to plant. As to the method: as §3
For assay [15], the system named is Alopecurus myosuroides (ALOMY). Briefly: Test Example 1, post-emergence herbicidal test. Particulars: 360 h, evaluated 15 days later, 100=total damage to plant, 0=no damage to plant. As to the method: as §3, with “Post-Emergence” for “Pre-Emergence”
Assay [16] deals with Avena fatua (AVEFA). Briefly: Test Example 1, post-emergence herbicidal test. Particulars: 360 h, evaluated 15 days later, 100=total damage to plant, 0=no damage to plant. How it is done: as §3, with “Post-Emergence” for “Pre-Emergence”
Assay [17] deals with Digitaria sanguinalis (DIGSA). Briefly: Test Example 1, post-emergence herbicidal test. The conditions noted are these: 360 h, evaluated 15 days later, 100=total damage to plant, 0=no damage to plant. As to the method: as §3, with “Post-Emergence” for “Pre-Emergence”
Assay [18] has as its system Echinochloa crus-galli (ECHCG). The assay can be described thus: Test Example 1, post-emergence herbicidal test. Particulars: 360 h, evaluated 15 days later, 100=total damage to plant, 0=no damage to plant. As to the method: as §3, with “Post-Emergence” for “Pre-Emergence”
Assay [19] deals with Lolium perenne (LOLPE). Briefly: Test Example 1, post-emergence herbicidal test. The conditions noted are these: 360 h, evaluated 15 days later, 100=total damage to plant, 0=no damage to plant. How it is done:
as §3, with “Post-Emergence” for “Pre-Emergence”

Assay [20] concerns Setaria faberi (SETFA). The assay can be described thus: Test Example 1, post-emergence herbicidal test. Particulars: 360 h, evaluated 15 days later, 100=total damage to plant, 0=no damage to plant, read-out: SEFTA damage to plant. How it is done: as §3, with “Post-Emergence” for “Pre-Emergence”

With `CO/N=C1/C[C@H]2CC[C@@H]1[C@H]1C(=O)C(c3c(C)cc(C)cc3C)=C(O)[C@@H]21` [Compound T59], the pest or weed control at 250 g/ha in assay [1] was 90%; in the assay on Avena fatua (AVEFA) [2] it was 30%; in assay [3], 80%; in assay [5], 30%; in the assay with Avena fatua (AVEFA) [6] it was 0%; in [7], 50%. Besides, the “SETFA damage to plant” value with Setaria faberi (SETFA) [4] and with Setaria faberi (SETFA) [8] was 80 each time.
Turning to `CCc1ccc(-c2ccc(Cl)cc2)cc1C1=C(O)[C@H]2[C@@H]3CC[C@@H](C(=NOC)C3)[C@H]2C1=O` (racemic) [Compound T9, rac-(3aS,4R,7R,7aR)-2-(4′-chloro-4-ethylbiphenyl-3-yl)hexahydro-4,7-ethanoindene-1,3,8-trione 8-(O-methyloxime)], the pest or weed control at 250 g/ha in [1] came out at 0%; with Avena fatua (AVEFA) [2], 0%; in [3], 0%; in assay [5], 70%; with Avena fatua (AVEFA) [6], 60%; in assay [7], 90%. Also, the “SETFA damage to plant” value in the assay with Setaria faberi (SETFA) [4] amounted to 0; with Setaria faberi (SETFA) [8], 100.
In the case of `Cc1cc(-c2ccccc2)cc(C)c1C1=C(O)[C@@H]2[C@H](C1=O)[C@@H]1C=C[C@H]2CC1` (racemic) [Compound T56, endo-(3aR,4S,7R,7aS)-2-(3,5-dimethylbiphenyl-4-yl)-3a,4,7,7a-tetrahydro-4,7-ethanoindene-1,3-dione], the pest or weed control at 250 g/ha in assay [1] is 100%; in the assay on Avena fatua (AVEFA) [2], 20%; in assay [3], 100%; in assay [5] it was 60%; with Avena fatua (AVEFA) [6], 60%; in [7] it was 100%. Moreover, the “SETFA damage to plant” value in the assay on Setaria faberi (SETFA) [4] and in the assay on Setaria faberi (SETFA) [8] was 100 each time.
Regarding `CCc1ccc(-c2ccc(Cl)cc2)cc1C1=C(O)[C@H]2[C@@H]3CC[C@@H](C(=O)C3)[C@H]2C1=O` (racemic) [Compound T7, rac-(3aS,4R,7R,7aR)-2-(4′-chloro-4-ethylbiphenyl-3-yl)hexahydro-4,7-ethanoindene-1,3,8-trione], the pest or weed control at 250 g/ha turned out to be 90% in assay [1]; 70% in the assay on Avena fatua (AVEFA) [2]; 100% in assay [3]; 20% in [5]; 20% in the assay with Avena fatua (AVEFA) [6]; 20% in assay [7]. For the same compound, the “SETFA damage to plant” value is 90 in the assay on Setaria faberi (SETFA) [4] and 60 in the assay with Setaria faberi (SETFA) [8].
In the case of `CCc1ccc(-c2ccc(Cl)cc2)cc1C1=C(O)[C@H]2C3CCC(C3=C(C)C)[C@H]2C1=O` (stereo partly shown) [Compound T21], the pest or weed control at 250 g/ha in assay [9] stood at 60%; in the assay on Avena fatua (AVEFA) [10], 20%; in [11] it was 50%; in [12], 30%; in the assay on Lolium perenne (LOLPE) [13] it was 40%; in the assay on Setaria faberi (SETFA) [14] it was 60%. For the same compound, the pest or weed control at 125 g/ha turned out to be 20% in [15]; 20% in the assay on Avena fatua (AVEFA) [16]; 20% in assay [17]; 0% in assay [18]; 0% with Lolium perenne (LOLPE) [19]; 20% with Setaria faberi (SETFA) [20].
Consider `CCc1cc(C)cc(CC)c1C1=C(O)[C@H]2[C@H]3CC[C@](OC)(CC3)[C@H]2C1=O` [Compound T57], for which the pest or weed control at 250 g/ha in [1] worked out at 100%; with Avena fatua (AVEFA) [2] it was 100%; in assay [3] it was 100%; in assay [5], 70%; in the assay with Avena fatua (AVEFA) [6], 30%; in assay [7], 100%. In addition, the “SETFA damage to plant” value with Setaria faberi (SETFA) [4] and in the assay with Setaria faberi (SETFA) [8] was 100 each time.
On to `Cc1cc(C)c(C2=C(O)[C@H]3[C@H]4CC[C@H](CC4)[C@H]3C2=O)c(C)c1` [Compound T47], for which the pest or weed control at 250 g/ha was found to be 90% in [9]; 50% in the assay with Avena fatua (AVEFA) [10]; 100% in assay [11]; 70% in assay [12]; 80% with Lolium perenne (LOLPE) [13]; 100% in the assay with Setaria faberi (SETFA) [14]. Also, the pest or weed control at 125 g/ha in assay [15] is 0%; with Avena fatua (AVEFA) [16], 40%; in [17], 80%; in [18] it was 60%; in the assay on Lolium perenne (LOLPE) [19] it was 40%; in the assay with Setaria faberi (SETFA) [20] it was 60%.
